The target in this test is T1, TRAAKG158D (Homo sapiens, UniProt Q9NYG8, G132D).
T1 construct: The transcribed messages encode H. sapiens TRAAK amino acids 1–393; expressed in transfected cells; host or cells: Xenopus laevis oocytes, cRNA injection
T1 sequence (Q9NYG8 1-393 G132D): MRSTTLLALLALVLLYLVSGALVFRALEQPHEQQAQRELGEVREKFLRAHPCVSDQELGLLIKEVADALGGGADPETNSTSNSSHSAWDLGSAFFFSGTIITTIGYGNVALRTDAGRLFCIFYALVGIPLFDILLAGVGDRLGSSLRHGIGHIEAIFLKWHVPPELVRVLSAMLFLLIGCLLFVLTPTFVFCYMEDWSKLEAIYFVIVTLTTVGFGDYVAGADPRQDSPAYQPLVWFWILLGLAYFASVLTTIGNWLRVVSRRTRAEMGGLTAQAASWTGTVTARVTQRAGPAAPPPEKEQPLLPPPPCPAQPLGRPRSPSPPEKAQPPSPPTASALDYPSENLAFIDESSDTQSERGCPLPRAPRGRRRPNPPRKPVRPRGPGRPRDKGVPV
Kind of test: Excised patch recording of TRAAK mutant G158D. Format: biochemical. From the text:
For patch clamp recording from Xenopus oocytes, genes encoding full-length Homo sapiens TRAAK (UniProt Q9NYG8–2), TREK-1 (UniProt O95069), and TREK-2 (UniProt P57789) were codon optimized for eukaryotic expression, synthesized (Genewiz), and cloned into a modified pGEMHE vector using Xho1 and EcoR1 restriction sites. The transcribed messages encode H. sapiens TRAAK amino acids 1–393, TREK-1 amino acids 1–426, or TREK-2 amino acids 1–538 with an additional three amino acids (SNS) at the C terminus. TRAAK mutants were introduced by polymerase chain reaction (PCR). Linearized DNA was transcribed in vitro using T7 polymerase. Complementary RNA (0.1 to 10 ng for TRAAK, TREK-1, TREK-2, and mutants) in 50 nL H2O was injected into Xenopus laevis oocytes extracted from anesthetized frogs. Currents were recorded at 25 °C from inside-out patches excised from oocytes 1 to 5 d after RNA injection. The pipette solution contained 15 mM KCl, 135 mM NaCl, 2 mM MgCl2, and 10 mM HEPES (pH = 7.4 with KOH) and the bath solution contained 150 mM KCl and 10 mM HEPES (pH = 7.1 with KOH). Borosilicate glass pipettes were pulled to 2–5 MΩ resistance.
Patches were evaluated with voltage-step protocols to confirm TRAAK expression and minimal non-specific leak based on reversal potential. Currents were recorded using an Axopatch 200B amplifier (Molecular Devices) at a bandwidth of 1 kHz and digitized with an Digidata 1550B (Molecular Devices) at 100–500 kHz using pClamp10.7 software. Pressure was applied with a second-generation high-speed pressure clamp device (HSPC-2-SB, ALA Scientific Instruments). Aggregated data were from patches from n ≥ 2 different cells on different days. No relevant differences were observed between patches from different cells. In an effort to minimize variability associated with differences in resting membrane tension, we targeted patches with low basal curvature and low resting channel activity and ensured measured pressure difference across the patch was as close to zero as possible at rest to prevent mechanical activation of channels. Data were analyzed using Clampfit 10.7, Excel, and Graphpad Prism software. For voltage families, the data were decimated 100x and plotted in Prism. […]
To avoid cannabinoid absorption to plastic, cannabinoid solutions were made in glass vials and diluted by weight, perfusion was performed using glass tubing pulled from borosilicate glass Pasteur pipettes (Fisherbrand, Cat# 13–678-20C), and recordings were performed in glass chambers. Channel activity was continuously recorded during perfusion steps. […]
The effects of cannabinoids on channel activity were quantified by the reduction in channel current evoked at 0 mV during a gap-free recording or during 200 ms long voltage families with steps ranging from −100 to +100 mV. […]

As to `C=C(C)[C@@H]1CCC(C)=C[C@H]1c1c(O)cc(CCCCC)cc1O` [CBD, Cannabidiol], the half-maximal effective concentration (EC50) – broadly, the concentration at which the effect is half-maximal – was 1030 ± 220 nM and the concentration for half-maximal inhibition (IC50) – broadly, the concentration at which inhibition is half-maximal – worked out at 1030 ± 220 nM. Besides, for the setting “G158D vs wild-type”, the “fold less sensitive than wild-type TRAAK” value is ~ 7.1 fold. Also, for the setting “highest CBD concentration tested, 10 μM, read-out: inhibition plateauing at % of initial current”, the inhibition – broadly, the drop in the measured response relative to a control, in per cent – at 10 µM is roughly 45%.
